In patent US20230167467A1, “METHODS AND COMPOSITIONS FOR THE PRODUCTION OF ISOBUTENE” (University of Alaska Anchorage, priority 2020, published 2023):
≈ marks a conversion by molar mass, not a printed value. Where two headings read alike, the source gives them in different places.

How the values were obtained:
[1] = system: Engineered strains of E. coli; assay type: cell-based
[2] = at 20° C.; cited from earlier work
[3] = system: 3-HIV; conditions: expressed in E. coli, plasmid based system, synthetic media; cited from earlier work
[4] = cited from earlier work; for Isobutene production: purified M3K
[5] = after solvent exposure, vs positive control

## C=C(C)C [isobutene]
[1]
  expression of accBC (fatty acid biosynthesis): downregulated
  expression of bssRS (decreasing biofilm material): upregulated
  expression of chaperone genes groLS and dnaJK: increased expression
  expression of gad genes: increase in expression
  expression of gadABCE (acid resistance via GABA production): upregulated
  expression of glpABC (glycerol to glycerone phosphate): increased in expression
  expression of heat shock proteins and chaperones hslJORUV: no significant changes in expression
  expression of ibpAB: strong upregulation
  expression of ibpAB and clpAB (protein protection and repair): increased
  expression of marA: upregulated
[1]; [5]
  change in expression of gene adiA: 0.47 ± 0.86
  change in expression of gene adiC: −1.83 ± 1.03
  change in expression of gene adiY: 0.21 ± 0.65
  change in expression of gene bhsA: 0.43 ± 0.86
  change in expression of gene bssR: 3.93 ± 0.44
  change in expression of gene bssS: 3.75 ± 0.84
  change in expression of gene clpA: 1.73 ± 0.64
  change in expression of gene clpB: 2.85 ± 0.69
  change in expression of gene clpP: 0.09 ± 0.59
  change in expression of gene coaA: −4.22 ± 0.95
  change in expression of gene coaD: −3.52 ± 1.24
  change in expression of gene cspA: −8.13 ± 0.67
  change in expression of gene cspB: −9.03 ± 1.74
  change in expression of gene cspC: −2.50 ± 0.94
  change in expression of gene cspD: 3.12 ± 0.58
  change in expression of gene cspE: −0.85 ± 0.63
  change in expression of gene cspF: −7.27 ± 1.56
  change in expression of gene dhaK: 2.25 ± 0.59
  change in expression of gene dhaL: 0.48 ± 0.65
  change in expression of gene dnaJ: 0.17 ± 0.70
  change in expression of gene dnaK: 2.71 ± 0.66
  change in expression of gene fabA: −2.35 ± 0.81
  change in expression of gene fabB: −0.08 ± 0.68
  change in expression of gene fabD: −1.92 ± 0.54
  change in expression of gene flgA: −3.93 ± 1.72
  change in expression of gene flgB: −7.15 ± 1.90
  change in expression of gene flgC: −8.24 ± 2.24
  change in expression of gene flgD: −6.54 ± 2.06
  change in expression of gene flgE: −7.58 ± 1.51
  change in expression of gene flgF: −7.63 ± 1.96
  change in expression of gene flgG: −6.35 ± 1.72
  change in expression of gene flgH: −4.44 ± 1.88
  change in expression of gene gabD: −0.64 ± 1.36
  change in expression of gene gabP: −3.65 ± 1.55
  change in expression of gene gabT: −1.79 ± 1.38
  change in expression of gene gadA: 1.22 ± 0.68
  change in expression of gene gadB: 2.70 ± 0.79
  change in expression of gene gadC: 3.17 ± 0.80
  change in expression of gene gadE: 1.75 ± 0.60
  change in expression of gene gadW: −4.21 ± 1.02
  change in expression of gene gadX: −1.69 ± 0.57
  change in expression of gene gadY: −1.72 ± 0.78
  change in expression of gene glpA: 9.06 ± 0.87
  change in expression of gene glpB: 6.10 ± 0.63
  change in expression of gene glpC: 6.02 ± 0.80
  change in expression of gene groL: 2.61 ± 0.57
  change in expression of gene groS: 1.62 ± 0.50
  change in expression of gene hchA: 3.41 ± 0.60
  change in expression of gene hslJ: −1.24 ± 0.71
  change in expression of gene hslO: −0.29 ± 0.66
  change in expression of gene hslR: −0.04 ± 0.67
  change in expression of gene hslU: 0.23 ± 0.56
  change in expression of gene hslV: −1.15 ± 0.66
  change in expression of gene ibpA: 3.97 ± 1.21
  change in expression of gene ibpB: 3.99 ± 1.50
  change in expression of gene lhgO: −1.00 ± 1.77
  change in expression of gene lipA: −1.56 ± 0.63
  change in expression of gene lipB: −4.07 ± 0.88
  change in expression of gene narG: 4.31 ± 0.65
  change in expression of gene narH: 3.55 ± 0.61
  change in expression of gene narI: 1.31 ± 0.94
  change in expression of gene narJ: 2.32 ± 0.68
  change in expression of gene narK: −0.07 ± 0.89
  change in expression of gene potA: −5.02 ± 0.89
  change in expression of gene potB: −4.42 ± 1.50
  change in expression of gene potC: −3.91 ± 1.44
  change in expression of gene pspA: 7.14 ± 0.55
  change in expression of gene pspB: 4.56 ± 0.68
  change in expression of gene rpoA: −0.01 ± 0.44
  change in expression of gene rpoB: −0.34 ± 0.40
  change in expression of gene rpoC: −0.44 ± 0.39
  change in expression of gene rpoD: −0.24 ± 0.70
  change in expression of gene rpoE: −1.87 ± 0.62
  change in expression of gene rpoH: 0.42 ± 0.52
  change in expression of gene rpoN: −1.57 ± 0.49
  change in expression of gene rpoS: 0.24 ± 0.48
  change in expression of gene rpoZ: −2.12 ± 0.55
  change in expression of gene spy: 2.48 ± 0.88
  change in expression of gene tatA: −1.83 ± 0.52
  change in expression of gene tatB: −2.68 ± 0.61
  change in expression of gene tatC: −3.61 ± 1.20
  change in expression of gene tatD: −4.46 ± 1.28
  change in expression of gene tatE: 0.70 ± 0.64
[1]; vs control, Bon Ferroni corrected p-value<0.05
  number of genes with significant changes in expression: 1384 genes
[2]
  aqueous solubility: 0.03 mg/mL (≈ 535 µM)

B1: M3K: mevalonate-3-kinase of Picrophilus torridus, enzyme and gene/transcript (optimized gene SEQ ID NO:1) (protein)
chain: MENYNVKTRAFPTIGIILLGGISDKKNRIPLHTTAGIAYTGINNDVYTETKLYVSKDEKSYIDGKEIDLNSDRSPSKVIDKFKHEILMRVNLDDENNLSIDSRNFNILSGSSDSGAAALGECIESIFEYNINIFTFENDLQRISESVGRSLYGGLTVNYANGRESLTEPLLEPEAFNNFTIIGAHFNIDRKPSNEIHENIIKHENYRERIKSAERKAKKLEELSRNANIKGIFELAESDTVEYHKMLHDVGVDIINDRMENLIERVKEMKNNFWNSYIVTGGPNVFVITEKKDVDKAMEGLNDLCDDIRLLKVAGKPQVISKNF
modifications: optimized gene; M3K optimized gene
[3]
  isobutene production rates: up to 507 pmol min^−1 g cells^−1
[4]; purified M3K enzyme with 3-HIV, 50° C.
  highest overall bioproduction of isobutene: 2,880±140 pmol/min*mg protein
[4]; 30° C.
  Isobutene production: 26±2 pmol*min-1 *mg protein
[4]; 50° C.
  Isobutene production: 2,880±140 pmol*min-1 *mg protein
